Here are results for 3 molecules from PMC4457528, “Identification of Novel Small Molecule Inhibitors of Oncogenic RET Kinase” (PLoS ONE, 2015).

Molecules are shown by their SMILES. Where two headings read alike, the source gives them in different places.

Holding throughout (assay): KinomeScan kinase panel, single concentration 10 µM
What all share (format): binding

For assay [1], the target named is T1, KinomeScan kinase panel (Homo sapiens, UniProt O15530).
T1 construct: purchased DiscoveRx (KinomeScan)
T1 sequence (O15530 1-556): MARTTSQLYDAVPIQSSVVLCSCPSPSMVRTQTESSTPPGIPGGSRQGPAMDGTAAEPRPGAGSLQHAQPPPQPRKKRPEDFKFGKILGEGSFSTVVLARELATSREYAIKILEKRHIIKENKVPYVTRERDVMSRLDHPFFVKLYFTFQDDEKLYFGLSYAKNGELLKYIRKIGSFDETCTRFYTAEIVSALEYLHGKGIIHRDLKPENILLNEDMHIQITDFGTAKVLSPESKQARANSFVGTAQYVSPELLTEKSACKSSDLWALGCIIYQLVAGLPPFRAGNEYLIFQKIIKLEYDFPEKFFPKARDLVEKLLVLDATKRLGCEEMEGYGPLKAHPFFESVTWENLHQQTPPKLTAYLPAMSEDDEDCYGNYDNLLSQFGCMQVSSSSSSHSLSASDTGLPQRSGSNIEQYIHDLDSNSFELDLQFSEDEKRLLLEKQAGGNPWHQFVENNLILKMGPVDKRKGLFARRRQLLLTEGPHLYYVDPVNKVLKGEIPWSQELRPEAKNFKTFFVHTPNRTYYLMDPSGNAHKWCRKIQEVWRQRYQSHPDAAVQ
The following applies: PDPK1, 10 µM; read-out: score (%).

Assay [2] concerns the target T2, KinomeScan kinase panel (Homo sapiens, UniProt O94806).
T2 construct: purchased DiscoveRx (KinomeScan)
T2 sequence (O94806 1-890): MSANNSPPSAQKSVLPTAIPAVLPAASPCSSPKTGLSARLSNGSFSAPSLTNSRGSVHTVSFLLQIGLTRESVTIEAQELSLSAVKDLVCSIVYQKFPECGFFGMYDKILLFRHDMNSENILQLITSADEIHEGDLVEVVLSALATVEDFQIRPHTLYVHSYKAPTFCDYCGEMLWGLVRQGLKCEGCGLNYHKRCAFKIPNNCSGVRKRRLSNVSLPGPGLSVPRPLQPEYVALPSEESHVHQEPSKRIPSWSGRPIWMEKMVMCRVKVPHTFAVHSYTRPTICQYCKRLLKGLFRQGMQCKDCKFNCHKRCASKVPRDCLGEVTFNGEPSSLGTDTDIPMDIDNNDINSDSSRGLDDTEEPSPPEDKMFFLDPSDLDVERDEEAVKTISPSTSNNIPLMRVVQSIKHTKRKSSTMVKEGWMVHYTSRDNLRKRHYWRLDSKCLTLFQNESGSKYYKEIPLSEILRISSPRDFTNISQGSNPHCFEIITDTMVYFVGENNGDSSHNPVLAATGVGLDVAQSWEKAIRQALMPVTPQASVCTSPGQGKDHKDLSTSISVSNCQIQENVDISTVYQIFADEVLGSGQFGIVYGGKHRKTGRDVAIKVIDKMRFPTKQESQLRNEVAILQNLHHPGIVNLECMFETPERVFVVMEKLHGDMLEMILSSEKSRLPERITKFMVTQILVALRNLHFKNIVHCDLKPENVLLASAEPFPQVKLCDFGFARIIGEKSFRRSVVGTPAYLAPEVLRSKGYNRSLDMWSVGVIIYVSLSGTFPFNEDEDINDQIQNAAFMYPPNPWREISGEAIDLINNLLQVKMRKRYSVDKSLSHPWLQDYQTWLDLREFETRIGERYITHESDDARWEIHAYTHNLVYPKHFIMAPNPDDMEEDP
The following applies: read-out: score (%).

For assay [3], the target named is T3, KinomeScan kinase panel (Homo sapiens, UniProt P17948).
T3 construct: purchased DiscoveRx (KinomeScan)
T3 sequence (P17948 27-1338): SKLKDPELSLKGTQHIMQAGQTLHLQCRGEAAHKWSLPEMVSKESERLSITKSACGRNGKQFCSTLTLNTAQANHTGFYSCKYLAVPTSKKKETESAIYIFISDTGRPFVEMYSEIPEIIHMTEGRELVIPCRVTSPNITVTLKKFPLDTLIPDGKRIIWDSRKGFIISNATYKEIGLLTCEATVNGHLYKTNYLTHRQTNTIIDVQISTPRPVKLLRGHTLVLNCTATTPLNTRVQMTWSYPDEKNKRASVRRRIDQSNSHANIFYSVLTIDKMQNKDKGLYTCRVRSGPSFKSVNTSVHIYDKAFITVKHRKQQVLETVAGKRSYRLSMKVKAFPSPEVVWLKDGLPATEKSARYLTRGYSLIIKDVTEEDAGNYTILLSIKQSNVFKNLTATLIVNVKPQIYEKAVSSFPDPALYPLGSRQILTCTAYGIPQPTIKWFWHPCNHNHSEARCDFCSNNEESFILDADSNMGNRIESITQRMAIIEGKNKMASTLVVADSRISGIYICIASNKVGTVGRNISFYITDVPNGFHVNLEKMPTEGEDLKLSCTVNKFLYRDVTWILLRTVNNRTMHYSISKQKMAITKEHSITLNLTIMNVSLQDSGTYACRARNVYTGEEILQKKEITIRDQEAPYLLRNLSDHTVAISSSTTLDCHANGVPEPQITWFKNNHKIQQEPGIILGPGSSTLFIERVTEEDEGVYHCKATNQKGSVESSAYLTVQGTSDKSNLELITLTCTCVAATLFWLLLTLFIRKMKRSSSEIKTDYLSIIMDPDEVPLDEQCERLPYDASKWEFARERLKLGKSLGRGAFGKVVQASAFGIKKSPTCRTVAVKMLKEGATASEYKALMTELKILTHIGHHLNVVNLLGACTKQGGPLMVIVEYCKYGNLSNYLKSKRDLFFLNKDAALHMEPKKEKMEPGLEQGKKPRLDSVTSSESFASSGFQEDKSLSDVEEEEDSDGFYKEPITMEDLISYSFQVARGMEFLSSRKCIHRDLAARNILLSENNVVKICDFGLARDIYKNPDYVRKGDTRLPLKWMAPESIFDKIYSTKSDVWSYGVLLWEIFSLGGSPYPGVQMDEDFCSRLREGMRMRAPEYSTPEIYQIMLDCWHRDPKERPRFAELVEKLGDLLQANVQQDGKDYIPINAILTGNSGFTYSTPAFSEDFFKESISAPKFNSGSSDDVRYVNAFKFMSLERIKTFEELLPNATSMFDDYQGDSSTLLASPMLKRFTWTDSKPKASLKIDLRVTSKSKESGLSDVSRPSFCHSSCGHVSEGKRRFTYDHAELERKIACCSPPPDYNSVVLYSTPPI
The following applies: FLT1, 10 µM; read-out: score (%).

Assay [4] addresses T4, KinomeScan kinase panel (Homo sapiens, UniProt P21127).
T4 construct: purchased DiscoveRx (KinomeScan)
The following applies: CDC2L1, 10 µM; read-out: score (%).

The target in assay [5] is T5, KinomeScan kinase panel (Homo sapiens, UniProt Q13153).
T5 construct: purchased DiscoveRx (KinomeScan)
T5 sequence (Q13153 whole entry): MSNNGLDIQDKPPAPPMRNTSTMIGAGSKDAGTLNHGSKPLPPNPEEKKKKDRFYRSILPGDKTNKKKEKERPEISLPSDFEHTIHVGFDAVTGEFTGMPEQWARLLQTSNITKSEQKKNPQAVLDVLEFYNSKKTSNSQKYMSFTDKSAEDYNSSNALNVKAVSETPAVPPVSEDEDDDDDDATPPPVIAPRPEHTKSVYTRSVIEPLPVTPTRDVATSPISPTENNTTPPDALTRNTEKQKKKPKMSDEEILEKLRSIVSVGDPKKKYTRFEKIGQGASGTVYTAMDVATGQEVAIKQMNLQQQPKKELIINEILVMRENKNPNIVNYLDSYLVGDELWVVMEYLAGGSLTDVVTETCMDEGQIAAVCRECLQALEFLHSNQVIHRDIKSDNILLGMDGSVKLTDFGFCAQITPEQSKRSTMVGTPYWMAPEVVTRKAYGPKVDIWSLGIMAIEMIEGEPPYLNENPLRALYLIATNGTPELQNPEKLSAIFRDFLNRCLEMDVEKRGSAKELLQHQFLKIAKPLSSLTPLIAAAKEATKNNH
The following applies: PAK1, 10 µM; read-out: score (%).

In assay [6] the target is T6, KinomeScan kinase panel (Homo sapiens, UniProt Q8IW41).
T6 construct: purchased DiscoveRx (KinomeScan)
T6 sequence (Q8IW41 1-473): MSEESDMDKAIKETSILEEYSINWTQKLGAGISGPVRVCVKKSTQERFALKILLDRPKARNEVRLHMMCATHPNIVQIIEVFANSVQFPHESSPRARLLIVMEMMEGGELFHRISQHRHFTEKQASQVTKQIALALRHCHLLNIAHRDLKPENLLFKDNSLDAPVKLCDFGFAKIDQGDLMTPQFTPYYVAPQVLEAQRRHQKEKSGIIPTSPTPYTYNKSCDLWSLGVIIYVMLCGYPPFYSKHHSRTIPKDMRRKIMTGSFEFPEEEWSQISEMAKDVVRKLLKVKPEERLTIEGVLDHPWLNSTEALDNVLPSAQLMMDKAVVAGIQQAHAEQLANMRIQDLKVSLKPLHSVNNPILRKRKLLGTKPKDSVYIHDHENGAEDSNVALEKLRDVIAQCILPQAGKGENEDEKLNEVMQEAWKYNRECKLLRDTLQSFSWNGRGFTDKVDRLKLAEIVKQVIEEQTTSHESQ
The following applies: MAPKAPK5, 10 µM; read-out: score (%).

Assay [7] addresses T7, KinomeScan kinase panel (Homo sapiens, UniProt Q96SB4).
T7 construct: purchased DiscoveRx (KinomeScan)
The following applies: read-out: score (%).

Assay [8] has as its target T8, KinomeScan kinase panel (Homo sapiens, UniProt Q9P0L2).
T8 construct: purchased DiscoveRx (KinomeScan)
The following applies: MARK1, 10 µM; read-out: score (%).

T8 sequence (Q9P0L2 whole entry): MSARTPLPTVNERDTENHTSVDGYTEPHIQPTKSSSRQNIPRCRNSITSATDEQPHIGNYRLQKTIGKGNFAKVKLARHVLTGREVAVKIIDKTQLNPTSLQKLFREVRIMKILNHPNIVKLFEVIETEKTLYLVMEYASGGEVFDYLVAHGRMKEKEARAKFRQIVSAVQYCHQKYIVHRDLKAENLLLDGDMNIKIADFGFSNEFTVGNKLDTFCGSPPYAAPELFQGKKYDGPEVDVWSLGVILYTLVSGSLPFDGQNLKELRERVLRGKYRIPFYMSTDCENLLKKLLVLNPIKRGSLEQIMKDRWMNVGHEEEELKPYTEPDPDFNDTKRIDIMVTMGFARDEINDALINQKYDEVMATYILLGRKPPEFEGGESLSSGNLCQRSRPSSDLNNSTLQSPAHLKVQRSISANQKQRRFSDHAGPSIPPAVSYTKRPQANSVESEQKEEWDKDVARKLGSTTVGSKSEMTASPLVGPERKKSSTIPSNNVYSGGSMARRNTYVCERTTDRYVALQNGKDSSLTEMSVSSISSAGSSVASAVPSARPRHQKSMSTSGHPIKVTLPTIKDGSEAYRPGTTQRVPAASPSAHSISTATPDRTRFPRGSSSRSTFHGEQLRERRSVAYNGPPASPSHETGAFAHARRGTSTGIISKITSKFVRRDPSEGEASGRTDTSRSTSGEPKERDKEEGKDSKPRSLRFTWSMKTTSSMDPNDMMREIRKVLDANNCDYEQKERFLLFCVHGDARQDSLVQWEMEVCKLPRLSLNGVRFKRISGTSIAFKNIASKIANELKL
T7 sequence (Q96SB4 whole entry): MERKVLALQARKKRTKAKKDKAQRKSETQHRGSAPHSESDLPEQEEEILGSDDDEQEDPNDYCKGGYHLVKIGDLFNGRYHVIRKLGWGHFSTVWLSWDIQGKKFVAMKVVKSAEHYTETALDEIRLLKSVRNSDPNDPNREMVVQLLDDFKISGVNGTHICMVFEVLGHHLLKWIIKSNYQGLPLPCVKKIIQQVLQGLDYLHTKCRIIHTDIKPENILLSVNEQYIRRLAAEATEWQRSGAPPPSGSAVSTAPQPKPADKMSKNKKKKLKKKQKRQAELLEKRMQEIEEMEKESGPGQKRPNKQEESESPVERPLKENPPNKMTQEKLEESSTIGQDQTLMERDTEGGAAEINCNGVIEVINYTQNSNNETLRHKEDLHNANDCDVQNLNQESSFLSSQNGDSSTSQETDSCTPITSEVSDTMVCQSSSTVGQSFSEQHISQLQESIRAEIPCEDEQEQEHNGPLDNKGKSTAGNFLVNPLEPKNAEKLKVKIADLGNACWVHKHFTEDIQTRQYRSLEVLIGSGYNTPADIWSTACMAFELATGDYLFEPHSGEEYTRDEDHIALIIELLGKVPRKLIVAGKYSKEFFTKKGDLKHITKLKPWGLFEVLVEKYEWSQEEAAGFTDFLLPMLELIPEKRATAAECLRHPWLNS
T4 sequence (P21127 whole entry): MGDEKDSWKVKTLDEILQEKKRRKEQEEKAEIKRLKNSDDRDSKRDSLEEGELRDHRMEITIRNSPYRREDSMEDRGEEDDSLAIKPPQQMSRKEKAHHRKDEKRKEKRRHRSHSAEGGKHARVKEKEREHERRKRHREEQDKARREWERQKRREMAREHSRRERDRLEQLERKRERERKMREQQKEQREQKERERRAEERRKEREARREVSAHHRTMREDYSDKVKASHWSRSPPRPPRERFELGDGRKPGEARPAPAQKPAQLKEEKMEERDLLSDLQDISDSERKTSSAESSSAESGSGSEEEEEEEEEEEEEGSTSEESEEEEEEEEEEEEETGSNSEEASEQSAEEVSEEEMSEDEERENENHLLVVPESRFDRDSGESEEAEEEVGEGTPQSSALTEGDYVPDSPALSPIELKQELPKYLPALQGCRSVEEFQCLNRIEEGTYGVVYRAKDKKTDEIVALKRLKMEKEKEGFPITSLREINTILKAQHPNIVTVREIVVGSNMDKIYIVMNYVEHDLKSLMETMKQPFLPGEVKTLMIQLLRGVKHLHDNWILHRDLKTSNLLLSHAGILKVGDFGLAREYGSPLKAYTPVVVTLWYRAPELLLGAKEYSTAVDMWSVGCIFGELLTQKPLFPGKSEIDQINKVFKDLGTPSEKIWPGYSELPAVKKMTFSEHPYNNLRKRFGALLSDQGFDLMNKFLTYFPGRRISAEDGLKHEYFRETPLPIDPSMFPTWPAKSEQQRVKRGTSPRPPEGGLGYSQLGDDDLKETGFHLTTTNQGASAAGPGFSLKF

`CCN1CCN(Cc2ccc(NC(=O)c3ccc(C)c(NC(=O)c4cncc(-c5cccs5)c4)c3)cc2C(F)(F)F)CC1` [ALW-II-41-27]: the remaining binding at 10 µM on KinomeScan kinase panel [1] is above 30%; on KinomeScan kinase panel [2] (PRKD3, 10 µM) it was above 30%; at KinomeScan kinase panel [3] it was 1%; on KinomeScan kinase panel [4] it was 1.5%; at KinomeScan kinase panel [5] it was above 30%; on KinomeScan kinase panel [6], above 30%. In addition, the remaining binding at 10 µM was above 30% on KinomeScan kinase panel [7] (kinase SRPK1, 10 µM) and above 30% on KinomeScan kinase panel [8].
Turning to `CCN1CCN(Cc2ccc(NC(=O)c3ccc(C)c(/C=C/c4cnc5[nH]ccc5c4Cl)c3)cc2C(F)(F)F)CC1` [HG-6-63-01, (E)-3-(2-(4-chloro-1H-pyrrolo[2,3-b]pyridin-5-yl)vinyl)-N-(4-((4-ethylpiperazin-1-yl)methyl)-3-(trifluoromethyl)phenyl)-4-methylbenzamide], the remaining binding at 10 µM at KinomeScan kinase panel [1] was above 30%; on KinomeScan kinase panel [2] (PRKD3, 10 µM) it was above 30%; at KinomeScan kinase panel [3], 0.2%; on KinomeScan kinase panel [4] it was 13%; at KinomeScan kinase panel [5], above 30%; on KinomeScan kinase panel [6], above 30%. The remaining binding at 10 µM on KinomeScan kinase panel [7] (SRPK1, 10 µM) was 0.25%; at KinomeScan kinase panel [8] it was above 30%.
For the molecule `CCN1CCN(Cc2ccc(NC(=O)c3ccc(C)c(C#Cc4cccnc4)c3)cc2C(F)(F)F)CC1` [XMD15-44], the remaining binding at 10 µM was 84% on KinomeScan kinase panel [1]; 22% at KinomeScan kinase panel [2] (kinase PRKD3, 10 µM); 0.5% at KinomeScan kinase panel [3]; 2.5% on KinomeScan kinase panel [4]; 81% on KinomeScan kinase panel [5]; above 30% on KinomeScan kinase panel [6]. Besides, the remaining binding at 10 µM is 100% on KinomeScan kinase panel [7] (kinase SRPK1, 10 µM) and above 30% at KinomeScan kinase panel [8].
